The target of experiment [1] is RNA-directed RNA polymerase (Hepacivirus hominis, UniProt O39930). The experiment is described as follows: Inhibitory activity against NS5B polymerase of hepatitis C virus.
Experiment [2] addresses Genome polyprotein (Human poliovirus 1 Mahoney, UniProt P03300). The experiment is described as follows: Inhibitory activity against polio virus RNA polymerase.
For experiment [3], the system named is Hepatitis C virus. The experiment is described as follows: Inhibitory activity against HCV RNA replication. The experiment is classed as functional, organism-based, Hepacivirus hominis.
For experiment [4], the target named is RNA-directed RNA polymerase (Hepacivirus hominis) (UniProt O39930). The experiment is described as follows: Inhibitory activity against NS5B polymerase of hepatitis C virus at 7 uM concentration; (Range = 13-30).
Chain of RNA-directed RNA polymerase (Hepacivirus hominis) (O39930 1-591): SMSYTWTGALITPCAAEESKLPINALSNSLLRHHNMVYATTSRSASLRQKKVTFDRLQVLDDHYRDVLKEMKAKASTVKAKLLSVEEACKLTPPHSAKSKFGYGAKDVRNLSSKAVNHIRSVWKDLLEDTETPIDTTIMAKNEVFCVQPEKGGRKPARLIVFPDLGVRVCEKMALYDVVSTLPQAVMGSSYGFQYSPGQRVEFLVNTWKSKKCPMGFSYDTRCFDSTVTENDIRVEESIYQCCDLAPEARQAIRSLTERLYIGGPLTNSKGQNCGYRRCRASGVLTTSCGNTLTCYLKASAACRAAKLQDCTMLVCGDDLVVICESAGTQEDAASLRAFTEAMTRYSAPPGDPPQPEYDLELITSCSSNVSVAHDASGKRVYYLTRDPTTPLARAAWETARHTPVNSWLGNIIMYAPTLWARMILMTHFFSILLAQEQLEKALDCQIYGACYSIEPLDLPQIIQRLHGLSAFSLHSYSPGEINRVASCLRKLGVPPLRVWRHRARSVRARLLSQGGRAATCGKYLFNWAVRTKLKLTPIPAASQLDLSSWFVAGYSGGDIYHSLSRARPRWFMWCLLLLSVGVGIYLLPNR

Chain of Genome polyprotein (P03300 1749-2209 limits assumed): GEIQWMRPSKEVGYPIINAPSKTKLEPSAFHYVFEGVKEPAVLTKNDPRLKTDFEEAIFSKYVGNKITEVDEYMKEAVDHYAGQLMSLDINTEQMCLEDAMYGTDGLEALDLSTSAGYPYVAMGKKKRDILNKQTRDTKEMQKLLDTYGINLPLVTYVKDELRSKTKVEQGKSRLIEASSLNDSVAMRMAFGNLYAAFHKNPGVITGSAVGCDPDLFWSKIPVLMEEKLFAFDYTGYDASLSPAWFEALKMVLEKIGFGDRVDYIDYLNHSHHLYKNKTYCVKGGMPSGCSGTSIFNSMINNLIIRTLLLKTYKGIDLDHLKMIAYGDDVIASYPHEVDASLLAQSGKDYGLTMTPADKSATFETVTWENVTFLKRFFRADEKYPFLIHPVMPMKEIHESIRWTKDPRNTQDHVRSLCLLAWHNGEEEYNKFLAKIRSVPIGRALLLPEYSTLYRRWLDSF
Chain of RNA-directed RNA polymerase (O39930 whole entry): as the sequence (O39930 1-591) above

For orientation: IC50 means the point on the concentration scale where inhibition reaches its midpoint. Low readings indicate inhibition by little substance, high ones a need for much substance. Consider `O=C(O)c1ccc2c(c1)nc(-c1ccc3ccccc3n1)n2C1CCCCC1`, for which the concentration for half-maximal inhibition (IC50) in experiment [1] is more than 30 µM.

`O=C(O)c1ccc2c(c1)nc(-c1ccc(C(=O)O)o1)n2C1CCCCC1` gave an IC50 in experiment [1] of more than 30 µM.

With `CC1CCCCC1n1c(-c2ccccn2)nc2cc(C(=O)O)ccc21` (centres undefined), the IC50 is more than 500 µM in experiment [2] and 13 µM in experiment [1].

Regarding `O=C(O)c1ccc2c(c1)nc(-c1ccccn1)n2-c1ccccc1`, half-maximal inhibition in experiment [1] (IC50) required 360 µM.

`CCOC(=O)c1nc2cc(C(=O)O)ccc2n1C1CCCCC1` gave a half-maximal inhibitory concentration (IC50) in experiment [1] of 62 µM.

`Cc1cccc(-c2nc3cc(C(=O)O)ccc3n2C2CCCCC2)n1` returned an IC50 in experiment [1] of more than 30 µM.

For `NC(=O)c1ccc2c(c1)nc(-c1ccccn1)n2C1CCCCC1`, the IC50 in experiment [1] is 27 µM.

In experiment [1], `Cc1cc(C)c(-c2nc3cc(C(=O)O)ccc3n2C2CCCCC2)c(C)c1` had an IC50 of 120 µM.

Turning to `O=C(O)c1ccc2c(c1)nc(-c1ccccc1)n2C1CCCCC1`, the IC50 in experiment [2] came out at 250 µM; in experiment [1], 8.6 µM.

In the case of `O=C(O)c1ccc2c(c1)nc(C1CCCCC1)n2C1CCCCC1`, the concentration for half-maximal inhibition (IC50) in experiment [1] was determined as 20 µM.

The term EC50 denotes the concentration needed to bring the measured effect to its halfway point. A low value points to an effect from little substance. For the molecule `O=C(O)c1ccc2c(c1)nc(-c1cccs1)n2C1CCCCC1`, the EC50 in experiment [3] is more than 100 µM. Moreover, the IC50 in experiment [2] was more than 250 µM; in experiment [1], 3.4 µM.

For `CNC(=O)c1ccc2c(c1)nc(-c1ccccn1)n2C1CCCCC1`, in experiment [1], the IC50 is 28 µM.

As for `CCc1ccc(-c2nc3cc(C(=O)O)ccc3n2C2CCCCC2)s1`, the 50% inhibitory concentration (IC50) in experiment [1] was more than 30 µM.

Consider `COc1ccc(CCNC(=O)c2ccc3c(c2)nc(-c2ccccn2)n3C2CCCCC2)cc1OC`, for which the IC50 in experiment [2] was more than 500 µM; in experiment [1], 12 µM.

In experiment [1], `O=C(O)c1ccc2c(c1)nc(-c1cc3ccccc3o1)n2C1CCCCC1` yielded an IC50 of 58 µM.

Turning to `COc1ccc(CNC(=O)c2ccc3c(c2)nc(-c2ccccn2)n3C2CCCCC2)cc1OC`, the IC50 in experiment [2] is more than 500 µM; in experiment [1], 7.1 µM.

The inhibition is the percentage by which the read-out fell short of the control. A low value points to a response near the control. On to `COc1ccc(NC(=O)c2ccc3c(c2)nc(-c2ccccn2)n3C2CCCCC2)cc1OC`, for which the inhibition in experiment [4] turned out to be 30%.

With `Cc1c(-c2nc3cc(C(=O)O)ccc3n2C2CCCCC2)[nH]c2ccccc12`, the half-inhibitory concentration (IC50) in experiment [1] was more than 30 µM.

Regarding `Cn1cccc1-c1nc2cc(C(=O)O)ccc2n1C1CCCCC1`, the 50% inhibitory concentration (IC50) in experiment [2] is more than 500 µM; in experiment [1], 1.8 µM.

In experiment [1], `Cc1cc(-c2nc3cc(C(=O)O)ccc3n2C2CCCCC2)oc1C` gave an IC50 of more than 30 µM.

In turn, `O=C(O)c1ccc2c(c1)nc(-c1ccccn1)n2C1CCCCCC1` registered an IC50 in experiment [1] of 49 µM.

In the case of `CN(C)CCCNC(=O)COc1ccc(-c2nc3cc(C(=O)O)ccc3n2C2CCCCC2)cc1`, in experiment [1], the IC50 was 13 µM.

Consider `O=C(O)c1ccc2c(c1)nc(-c1ncc[nH]1)n2C1CCCCC1`, for which the results for the IC50 in experiment [2] and in experiment [1] were more than 250 µM and 10 µM, respectively.

In experiment [1], `O=C(O)c1ccc2[nH]c(-c3ccccn3)nc2c1` showed an IC50 of more than 500 µM.

`O=C(O)c1ccc2c(c1)nc(-c1ccccn1)n2C1CCC1` gave an IC50 in experiment [1] of 76 µM.

The molecule `O=C(O)c1ccc2c(c1)nc(-c1ccccn1)n2C1CCCCC1` came in with an EC50 in experiment [3] of more than 100 µM. In addition, the concentration for half-maximal inhibition (IC50) in experiment [2] was more than 500 µM; in experiment [1], 4.3 µM.

As for `O=C(O)c1ccc2c(c1)nc(-c1cccnc1)n2C1CCCCC1`, the IC50 was more than 250 µM in experiment [2] and 28 µM in experiment [1].

With `O=C(O)c1ccc2c(c1)nc(-c1ccncc1)n2C1CCCCC1`, the IC50 is more than 500 µM in experiment [2] and 17 µM in experiment [1].

On to `Cc1ccc(-c2nc3cc(C(=O)O)ccc3n2C2CCCCC2)s1`, for which, in experiment [1], the IC50 is more than 30 µM.

`O=C(O)c1ccc2c(c1)nc(-c1ccc(CO)o1)n2C1CCCCC1` came in with a half-inhibitory concentration (IC50) in experiment [1] of more than 30 µM.

As for `O=C(O)c1ccc2c(c1)nc(-c1ccc(C(=O)O)s1)n2C1CCCCC1`, in experiment [1], the IC50 was more than 30 µM.

`Cc1[nH]cnc1-c1nc2cc(C(=O)O)ccc2n1C1CCCCC1` displayed an IC50 in experiment [1] of more than 30 µM.

As to `O=C(O)c1ccc2c(c1)nc(-c1ccccn1)n2C1CCCC1`, the half-maximal inhibitory concentration (IC50) in experiment [2] is more than 500 µM; in experiment [1], 12 µM.

As for `O=C(O)c1ccc2c(c1)nc(-c1ccc[nH]1)n2C1CCCCC1`, the IC50 in experiment [2] was more than 500 µM; in experiment [1], 5.9 µM.

`CC1CCC(n2c(-c3ccccn3)nc3cc(C(=O)O)ccc32)CC1` (centres undefined): the concentration for half-maximal inhibition (IC50) in experiment [1] amounted to 50 µM.

In experiment [1], `O=C(O)c1ccc2c(c1)nc(C(=O)c1ccccc1)n2C1CCCCC1` showed an IC50 of 44 µM.

Turning to `CC(C)=Cc1nc2cc(C(=O)O)ccc2n1C1CCCCC1`, the IC50 in experiment [2] was more than 500 µM; in experiment [1], 19 µM.

`O=C(O)c1ccc2c(c1)nc(-c1c[nH]nc1-c1ccccc1)n2C1CCCCC1` yielded an IC50 in experiment [1] of more than 30 µM.

For `CCC(CC)n1c(-c2ccccn2)nc2cc(C(=O)O)ccc21`, 139 µM corresponded to half-maximal inhibition in experiment [1] (IC50).

In experiment [1], `O=C(O)c1ccc2c(c1)nc(-c1ccc(Br)o1)n2C1CCCCC1` registered an IC50 of more than 30 µM.

`O=C(O)c1ccc2c(c1)nc(-c1ccc(-c3ccc(Cl)cc3)o1)n2C1CCCCC1` had an IC50 in experiment [1] of more than 30 µM.

For `CCc1ccc(-c2nc3cc(C(=O)O)ccc3n2C2CCCCC2)o1`, in experiment [1], the IC50 is more than 30 µM.

Take `O=C(O)c1ccc2c(c1)nc(-c1ccco1)n2C1CCCCC1`: the IC50 in experiment [2] was more than 500 µM; in experiment [1] it was 3.7 µM.

For `O=C(O)c1ccc2c(c1)nc(-c1ccsc1)n2C1CCCCC1`, the EC50 in experiment [3] is more than 100 µM. Further, the IC50 in experiment [2] was more than 250 µM; in experiment [1], 6.33 µM.

For the molecule `CC(C)n1c(-c2ccccn2)nc2cc(C(=O)O)ccc21`, the half-maximal inhibitory concentration (IC50) in experiment [1] stood at 408 µM.

`O=C(O)c1ccc2c(c1)nc(-c1ccoc1)n2C1CCCCC1` came in with an EC50 in experiment [3] of more than 100 µM. Besides, the results for the IC50 in experiment [2] and in experiment [1] were more than 250 µM and 1.6 µM, respectively.

Turning to `O=C(O)c1ccc2c(c1)ncn2C1CCCCC1`, inhibition in experiment [1] was half-maximal at 186 µM (IC50).

Take `O=C(O)c1ccc2c(c1)nc(-c1nccs1)n2C1CCCCC1`: the figures for the IC50 in experiment [2] and in experiment [1] were more than 500 µM and 4.6 µM, respectively.

These data come from ChEMBL document CHEMBL1149223, “Non-nucleoside inhibitors of the hepatitis C virus NS5B polymerase: discovery and preliminary SAR of benzimidazole derivatives” (Bioorg Med Chem Lett, 2004).
